Experimental data as given in article PMC8279416, “Structural Fine-Tuning of Desmuramylpeptide NOD2 Agonists Defines Their In Vivo Adjuvant Activity” (Journal of Medicinal Chemistry, 2021).
Values joined by “and” are separate entries in the source; they are usually repeats but may differ in a detail not shown here. Equal entries are not always repeated.

Target: T1, NOD2 (Homo sapiens, UniProt Q9HC29)
T1 construct: host or cells: HEK-Blue NOD2 cells (HEK293-derived)
Assay: HEK-Blue NOD2 cell line reporter assay (NF-κB-inducible SEAP)
Type: cell-based
Conditions: HEK-Blue NOD2 cells; for NOD2 activity at 2 μM (fold increase): NF-κB transcriptional (SEAP) activity relative to 0.1% DMSO; for NOD2 activation (in words): compound alone
Protocol: To determine the NOD2 agonistic potential of the synthesized desmuramylpeptides at the cellular level, we used the validated and commercially available HEK-Blue NOD2 cell line reporter assay. HEK-Blue NOD2 cells were first treated for 18 h with MDP, 1, or the novel desmuramylpeptides at 2 μM. The NF-κB transcriptional activity measured was normalized to that of the vehicle treated (0.1% DMSO) control HEK-Blue NOD2 cells.
HEK-Blue NOD2 and NOD1 cell line reporter assays are derived from HEK293 cells by cotransfection of the hNOD2 or hNOD1 genes, respectively, and an NF-κB-inducible secreted embryonic alkaline phosphatase (SEAP) reporter gene. Following activation of NOD2 or NOD1, the resulting NF-κB induces production of SEAP, the levels of which can be quantified colorimetrically. […] After 18 h of incubation (37 °C, 5% CO2), secreted embryonic alkaline phosphatase (SEAP) activity was determined spectrophotometrically as absorbance at 630 nm (BioTek Synergy microplate reader; Winooski, VT, U.S.A.). EC50 values were calculated using Prism software (version 9; GraphPad Software, CA, U.S.A.). For determination of specificity, HEK-Blue NOD2 cells (2.5 × 10^5 cells/mL) were first pretreated for 1 h with a 10 μM NOD2 antagonist, before the addition of the compounds (2 μM), with incubation for 18 h. SEAP activity in the supernatants was determined as above. The experiments were run in duplicate and repeated as at least two independent biological replicates.

[1] = 18 h, 7 or 8 concentrations 1 nM to 20 μM, mean ± SEM

T1 sequence (Q9HC29 whole entry): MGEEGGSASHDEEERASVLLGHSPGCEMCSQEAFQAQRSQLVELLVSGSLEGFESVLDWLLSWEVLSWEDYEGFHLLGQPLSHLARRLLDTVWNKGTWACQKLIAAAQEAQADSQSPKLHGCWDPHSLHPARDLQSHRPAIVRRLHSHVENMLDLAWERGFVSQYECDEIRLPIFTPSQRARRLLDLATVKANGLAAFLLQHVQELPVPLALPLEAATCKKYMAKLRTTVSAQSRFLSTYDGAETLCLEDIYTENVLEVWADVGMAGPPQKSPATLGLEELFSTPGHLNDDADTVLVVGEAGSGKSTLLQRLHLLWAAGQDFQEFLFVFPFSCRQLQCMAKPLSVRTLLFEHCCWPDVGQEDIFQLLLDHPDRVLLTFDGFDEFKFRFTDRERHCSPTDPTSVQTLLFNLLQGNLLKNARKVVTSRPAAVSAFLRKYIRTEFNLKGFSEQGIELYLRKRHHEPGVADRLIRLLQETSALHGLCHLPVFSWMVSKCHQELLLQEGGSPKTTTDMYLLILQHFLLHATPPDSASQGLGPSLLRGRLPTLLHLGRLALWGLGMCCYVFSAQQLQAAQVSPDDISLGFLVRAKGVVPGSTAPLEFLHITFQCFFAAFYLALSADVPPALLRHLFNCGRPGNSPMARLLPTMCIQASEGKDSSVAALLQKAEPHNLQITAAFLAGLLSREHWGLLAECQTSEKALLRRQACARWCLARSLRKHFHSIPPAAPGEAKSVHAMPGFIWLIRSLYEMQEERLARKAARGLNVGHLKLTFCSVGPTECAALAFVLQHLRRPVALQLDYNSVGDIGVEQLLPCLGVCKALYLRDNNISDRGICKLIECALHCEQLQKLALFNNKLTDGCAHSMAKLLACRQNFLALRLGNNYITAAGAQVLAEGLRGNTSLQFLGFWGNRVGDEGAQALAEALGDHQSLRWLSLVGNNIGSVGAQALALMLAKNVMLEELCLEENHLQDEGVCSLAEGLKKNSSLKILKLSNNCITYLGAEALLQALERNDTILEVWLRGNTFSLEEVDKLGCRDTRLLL

SMILES | NOD2 activity at 2 μM (fold increase) (18 h, mean ± SEM) | EC50 [1] | EC50 | NOD2 activation (in words)
CCOC(=O)CC[C@@H](NC(=O)[C@@H](NC(=O)CNC(=O)/C=C/c1ccc(C(C)C)cc1)C(C)C)C(=O)OCC [Compound 25, Diethyl ((E)-3-(4-Isopropylphenyl)acryloyl)glycyl-L-valyl-D-glutamate] | 2.83 ± 0.06 fold increase | 0.071 ± 0.004 µM |  | 
CCOC(=O)CC[C@@H](NC(=O)[C@@H](NC(=O)CNC(=O)/C=C/c1ccc([N+](=O)[O-])cc1)C(C)C)C(=O)OCC [Compound 26, Diethyl ((E)-3-(4-Nitrophenyl)acryloyl)glycyl-L-valyl-D-glutamate] | 3.02 ± 0.07 fold increase | 0.049 ± 0.004 µM |  | 
COc1cc(/C=C/C(=O)NCC(=O)N[C@H](C(=O)N[C@H](CCC(=O)N2CCCC2)C(=O)OC(C)(C)C)C(C)C)ccc1O [Compound 62, tert-Butyl (R)-2-((S)-2-(2-((E)-3-(4-Hydroxy-3-methoxyphenyl)acrylamido)acetamido)-3-methylbutanamido)-5-oxo-5-(pyrrolidin-1-yl)pentanoate] | 1.43 ± 0.01 fold increase |  |  | 
CCCCCCCCCCCCCCCCCC(=O)NCCCC[C@H](NC(=O)CC[C@@H](NC(=O)[C@@H](NC(=O)CNC(=O)/C=C/c1ccc(O)c(OC)c1)C(C)C)C(=O)OCC)C(=O)OC [Compound 82, Methyl N^2-((R)-5-Ethoxy-4-((S)-2-(2-((E)-3-(4-hydroxy-3-methoxyphenyl)acrylamido)acetamido)-3-methylbutanamido)-5-oxopentanoyl)-N^6-stearoyl-L-lysinate] | 2.00 ± 0.03 fold increase | 11.5 ± 3.91 µM | 11.5 µM | 
CCCCCCCCCCCCCCCCCCOC(=O)CC[C@@H](NC(=O)[C@@H](NC(=O)CNC(=O)/C=C/c1ccc(O)c(OC)c1)C(C)C)C(=O)OCCCCCCCCCCCCCCCCCC [Compound 72, Dioctadecyl ((E)-3-(4-Hydroxy-3-methoxyphenyl)acryloyl)glycyl-L-valyl-D-glutamate] | 1.32 ± 0.02 fold increase |  |  | almost completely abrogated the NOD2 agonistic activity
CCOC(=O)CC[C@@H](NC(=O)[C@H](CO)NC(=O)CNC(=O)/C=C/c1ccc(O)c(OC)c1)C(=O)OCC [Compound 31, Diethyl ((E)-3-(4-Hydroxy-3-methoxyphenyl)acryloyl)glycyl-L-seryl-D-glutamate] | 1.21 fold increase and 1.21 ± 0.08 fold increase | > 20 µM |  | 
CCOC(=O)CC[C@@H](NC(=O)[C@@H](NC(=O)CNC(=O)[C@@H]1C[C@H]1c1ccc(F)c(F)c1)C(C)C)C(=O)OCC [Compound 29b] | 2.71 ± 0.05 fold increase | 0.039 ± 0.001 µM |  | 
CCCCCCCCCCCCCCCCCC(=O)Oc1ccc(/C=C/C(=O)NCC(=O)N[C@H](C(=O)N[C@H](CCC(=O)OC2CCCC2)C(=O)OC2CCCC2)C(C)C)cc1OC [Compound 78, Dicyclopentyl ((E)-3-(3-Methoxy-4-(stearoyloxy)phenyl)acryloyl)glycyl-L-valyl-D-glutamate] | 1.66 ± 0.11 fold increase | 6.16 ± 1.16 µM | 6.16 µM | 
COc1cc(/C=C/C(=O)NCC(=O)N[C@H](C(=O)N[C@H](CCC(=O)OC(C)(C)C)C(=O)OC(C)(C)C)C(C)C)ccc1O [Compound 56, Di-tert-butyl ((E)-3-(4-Hydroxy-3-methoxyphenyl)acryloyl)glycyl-L-valyl-D-glutamate] | 1.20 ± 0.10 fold increase |  |  | markedly reduced NOD2 activation
CCOC(=O)CC[C@@H](NC(=O)[C@@H](NC(=O)CNC(=O)/C=C/c1ccc(O)c(OC)c1)[C@@H](C)O)C(=O)OCC [Compound 32, Diethyl ((E)-3-(4-Hydroxy-3-methoxyphenyl)acryloyl)glycyl-L-threonyl-D-glutamate] | 1.54 ± 0.02 fold increase | 12.5 ± 1.22 µM |  | 
